In patent publication US6589970B2, “6-(aryl-amido or aryl-amidomethyl)-naphthalen-2-yloxy-acidic derivatives as inhibitors of plasminogen activator inhibitor type-1 (PAI-1)” (Wyeth, priority 2001, dated 2003):
Where a name gives a salt, the structure may show the parent alone.

Columns and labels:
[1] = target: T1, recombinant human plasminogen activator inhibitor-1 (PAI-1) (Homo sapiens, UniProt P05121); assay: Primary Screen for the PAI-1 Inhibition; assay type: biochemical; settings: for inhibition at 100 µM: read-out: % Inhib. 100 μM; for inhibition at 25 µM: read-out: % Inhib. 25 μM
T1 construct: purchased Molecular Innovations, Royal Oak, Mich
T1 sequence (P05121 24-402): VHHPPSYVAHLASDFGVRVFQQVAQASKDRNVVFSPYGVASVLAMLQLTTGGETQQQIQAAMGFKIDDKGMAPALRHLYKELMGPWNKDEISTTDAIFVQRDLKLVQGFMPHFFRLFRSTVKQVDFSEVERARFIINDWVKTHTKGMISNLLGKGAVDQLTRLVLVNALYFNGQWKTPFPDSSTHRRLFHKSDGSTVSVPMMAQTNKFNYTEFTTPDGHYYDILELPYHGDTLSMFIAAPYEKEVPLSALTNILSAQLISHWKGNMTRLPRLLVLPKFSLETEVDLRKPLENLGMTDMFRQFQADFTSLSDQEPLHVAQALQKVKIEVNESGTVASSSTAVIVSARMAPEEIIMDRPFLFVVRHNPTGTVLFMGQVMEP
Procedure: Test compounds are dissolved in DMSO at a final concentration of 10 mM, then diluted 100× in physiologic buffer. The inhibitory assay is initiated by the addition of the test compound (1-100 μM final concentration, maximum DMSO concentration of 0.2%) in a pH 6.6 buffer containing 140 nM recombinant human plasminogen activator inhibitor-1 (PAI-1; Molecular Innovations, Royal Oak, Mich.). Following a 1 hour incubation at room temperature, 70 nM of recombinant human tissue plasminogen activator (tPA) is added, and the combination of the test compound, PAI-1 and tPA is incubated for an additional 30 minutes. Following the second incubation, Spectrozyme-tPA (American Diagnostica, Greenwich, Conn.), a chromogenic substrate for tPA, is added and absorbance read at 405 nm at 0 and 60 minutes. Relative PAI-1 inhibition is equal to the residual tPA activity in the presence of the test compound and PAI-1. Control treatments include the complete inhibition of tPA by PAI-1 at the molar ratio employed (2:1), and the absence of any effect of the test compound on tPA alone.

human PAI-1 = human PAI-1 (Homo sapiens, UniProt P05121); assay: Assay for Determining IC50 of Inhibition of PAI-1 (Antibody Assay); assay type: biochemical; settings: active PAI-1 bound to tPA-coated plate
Chain of human PAI-1 (P05121 24-402): as above
Procedure: This assay is based upon the non-SDS dissociable interaction between tPA and active PAI-1. Assay plates are initially coated with human tPA (10 μg/ml). The test compounds are dissolved in DMSO at 10 mM, then diluted with physiologic buffer (pH 7.5) to a final concentration of 1-50 μM. The test compounds are incubated with human PAI-1 (50 ng/ml) for 15 minutes at room temperature. The tPA-coated plate is washed with a solution of 0.05% Tween 20 and 0.1% BSA, then the plate is blocked with a solution of 3% BSA. An aliquot of the test compound/PAI-1 solution is then added to the tPA-coated plate, incubated at room temperature for 1 hour, and washed. Active PAI-1 bound to the plate is assessed by adding an aliquot of a 1:1000 dilution of the 33B8 monoclonal antibody against human PAI-1, and incubating the plate at room temperature for 1 hour (Molecular Innovations, Royal Oak, Mich. The plate is again washed, and a solution of goat anti-mouse IgG-alkaline phosphatase conjugate is added at a 1:50,000 dilution in goat serum. The plate is incubated 30 minutes at room temperature, washed, and a solution of alkaline phosphatase substrate is added. The plate is incubated 45 minutes at room temperature, and color development is determined at OD405nm. The quantitation of active PAI-1 bound to tPA at varying concentrations of the test compound is used to determine the IC50. Results are analyzed using a logarithmic best-fit equation. The assay sensitivity is 5 ng/ml of human PAI-1 as determined from a standard curve ranging from 0-100 ng/ml.

Row | SMILES | melting point | inhibition at 100 µM ([1]; 100 μM test compound) | inhibition at 25 µM ([1]; 25 μM test compound) | IC50 (human PAI-1) | % Inhib. 25 μM ([1]; 25 μM test compound) | % Inhib. 100 μM ([1]; 100 μM test compound)
1 | CCCCc1oc2ccccc2c1C(=O)NCc1ccc2c(Br)c(OCC(=O)O)ccc2c1 (as salt: sodium) [Example 19, Sodium; (1-bromo-6-{[(2-butyl-benzofuran-3-carbonyl)-amino]-methyl}-naphthalen-2-yloxy)-acetate] | 260 °C |  |  |  |  | 
2 | CCCCc1oc2ccccc2c1C(=O)Nc1ccc2c(Br)c(OCc3nn[nH]n3)ccc2c1 [Example 5, 2-Butyl-benzofuran-3-carboxylic acid [5-bromo-6-(2H-tetrazol-5-ylmethoxy)-naphthalen-2-yl]-amide] | 242 to 245 °C | 47% |  |  |  | 
3 | Cc1c(C(=O)NCc2ccc3c(Br)c(OCc4nnn[nH]4)ccc3c2)oc2ccccc12 [Example 43, 3-Methyl-benzofuran-2-carboxylic acid [5-bromo-6-(1H-tetrazol-5-ylmethoxy)-naphthalen-2-ylmethyl]-amide] | 212 to 215 °C | 71% | 47% |  |  | 
4 | CCCc1c(C(=O)NCc2ccc3c(Br)c(OCc4nnn[nH]4)ccc3c2)cnn1-c1ccccc1 [Example 22, 1-Phenyl-5-propyl-1H-pyrazole-4-carboxylic acid [5-bromo-6-(1H-tetrazol-5-ylmethoxy)-naphthalen-2-ylmethyl]-amide] | 219 to 220 °C | 70% | 12% |  |  | 
5 | CC(C)(C)c1cc(C(=O)N(Cc2ccccc2)Cc2ccc3c(Br)c(OC(Cc4ccccc4)C(=O)O)ccc3c2)cc(C(C)(C)C)c1 (stereo not shown) [Example 69, 2-(6-{[Benzyl-(3,5-di-tert-butyl-benzoyl)-amino]-methyl}-1-bromo-naphthalen-2-yloxy)-3-phenyl-propionic acid] |  | 92% | 55% | 16.8 µM |  | 
6 | Cc1c(C(=O)N(C)Cc2ccc3c(Br)c(OCc4nnn[nH]4)ccc3c2)oc2ccccc12 [Example 41, 3-Methyl-benzofuran-2-carboxylic acid [5-bromo-6-(1H-tetrazol-5-ylmethoxy)-naphthalen-2-ylmethyl]-methyl-amide] | 164 to 166 °C | 91% | 49% |  |  | 
7 | CCCCc1oc2ccccc2c1C(=O)NCc1ccc2cc(OCC(=O)[O-])ccc2c1.[Na+] [Example 9, Sodium; (6-{[(2-butyl-benzofuran-3-carbonyl)-amino]-methyl}-naphthalen-2-yloxy)-acetate] | > 275 °C | 89% | 28% |  |  | 
8 | CCCCc1oc2ccccc2c1C(=O)NCc1ccc2c(-c3ccc(C)cc3)c(OCc3nnn[nH]3)ccc2c1 [Example 23, 2-Butyl-benzofuran-3-carboxylic acid [6-(1H-tetrazol-5-ylmethoxy)-5-p-tolyl-naphthalen-2-ylmethyl]-amide] | 162 to 166 °C | 48% |  |  |  | 
9 | CCCCc1oc2ccccc2c1C(=O)Nc1ccc2c(Br)c(OCC(=O)O)ccc2c1 (as salt: sodium) [Example 6, {1-Bromo-6-[(2-butyl-benzofuran-3-carbonyl)-amino]-naphthalen-2-yloxy}-acetic acid sodium salt] | 284 to 287 °C |  |  |  |  | 
10 | CCCCc1oc2ccccc2c1C(=O)NCc1ccc2c(-c3ccc(OC)cc3)c(OCc3nnn[nH]3)ccc2c1 (as salt: sodium) [Example 25, 2-Butyl-benzofuran-3-carboxylic [5-(4-methoxy phenyl)-6-(1H-tetrazol-5-ylmethoxy)-naphthalen-2-ylmethyl]-amide, sodium salt] | 147 to 152 °C |  |  |  |  | 
11 | Cc1c(C(=O)NCc2ccc3c(Br)c(OC(Cc4ccccc4)C(=O)O)ccc3c2)oc2ccccc12 (stereo not shown) [Example 44, 2-(1-Bromo-6-{[(3-methyl-benzofuran-2-carbonyl)-amino]-methyl}-naphthalen-2-yloxy)-3-phenyl-propionic acid] | 110 to 113 °C |  |  |  |  | 
12 | CN(Cc1ccc2c(Br)c(OCC(=O)O)ccc2c1)C(=O)c1oc2ccccc2c1CCc1ccccc1 [Example 47, (1-Bromo-6-{[methyl-(3-phenethyl-benzofuran-2-carbonyl)-amino]-methyl}-naphthalen-2-yloxy)-acetic acid] | 119 to 122 °C | 90% | 59% |  |  | 
13 | CCCCc1oc2ccccc2c1C(=O)NCc1ccc2cc(OCc3nnn[nH]3)ccc2c1 (as salt: sodium) [Example 8, 2-Butyl-benzofuran-3-carboxylic acid [6-(1H-tetrazol-5-ylmethoxy)-naphthalen-2-ylmethyl]-amide sodium salt] | 207 to 210 °C |  |  |  |  | 
14 | CCCCc1oc2ccccc2c1C(=O)NCc1ccc2c(-c3ccc(C(C)(C)C)cc3)c(OCc3nnn[nH]3)ccc2c1 [Example 27, 2-Butyl-benzofuran-3-carboxylic acid [5-(4-tert-butyl-phenyl)-6-(1H-tetrazol-5-ylmethoxy)-naphthalen-2-ylmethyl]-amide] | 75 to 78 °C | 39% |  |  |  | 
15 | CN(Cc1ccc2c(Br)c(OC(Cc3ccccc3)C(=O)O)ccc2c1)C(=O)c1oc2ccccc2c1CCc1ccccc1 (stereo not shown) [Example 46, 2-(1-Bromo-6-{[methyl-(3-phenethyl-benzofuran-2-carbonyl)-amino]-methyl}-naphthalen-2-yloxy)-3-phenyl-propionic acid] | 87 to 90 °C | 88% | 58% |  |  | 
16 | CN(Cc1ccc2c(Br)c(OCc3nnn[nH]3)ccc2c1)C(=O)c1oc2ccccc2c1CCc1ccccc1 [Example 45, 3-Phenethyl-benzofuran-2-carboxylic acid [5-bromo-6-(1H-tetrazol-5-ylmethoxy)-naphthalen-2-ylmethyl]-methyl-amide] | 56 to 59 °C | 17% |  |  |  | 
17 | CCCCc1c(C(=O)N(C)Cc2ccc3c(Br)c(OCc4nnn[nH]4)ccc3c2)oc2ccccc12 [Example 39, 3-Butyl-benzofuran-2-carboxylic acid [5-bromo-6-(1H-tetrazol-5-ylmethoxy)-naphthalen-2-ylmethyl]-methyl-amide] | 180 to 183 °C | 69% | 24% |  |  | 
18 | CCCCc1oc2ccccc2c1C(=O)Nc1ccc2cc(OCC(=O)O)ccc2c1 [Example 4, {6-[(2-Butyl-benzofuran-3-carbonyl)-amino]-naphthalen-2-yloxy}-acetic acid sodium salt] |  | 66% | 3% |  |  | 
19 | CCCCc1oc2ccccc2c1C(=O)N(CC)Cc1ccc2cc(OCc3nnn[nH]3)ccc2c1 [Example 35, 2-Butyl-benzofuran-3-carboxylic acid methyl-[6-(1H-tetrazol-5-ylmethoxy)-naphthalen-2ylmethyl]-methyl-amide] |  | 72% | 26% |  |  | 
20 | O=C(O)COc1ccc2cc(NC(=O)C3(c4ccc(Cl)cc4)CCCCC3)ccc2c1 [Example 79, (6-{[1-(4-Chloro-phenyl)-cyclohexanecarbonyl]-amino}-naphathalen-2-yloxy)-acetic acid] |  |  |  |  | 19% | 50%
21 | CCCc1c(C(=O)NCc2ccc3cc(OCC(=O)O)ccc3c2)cnn1-c1ccc(Cl)cc1 [Example 13, [6-({[1-(4-Chloro-phenyl)-5-propyl-1H-pyrazole-4-carbonyl]-amino}-methyl)-naphthalen-2-yloxy]-acetic acid] |  | 52% | 5% |  |  | 
22 | CCCCc1c(C(=O)N(C)Cc2ccc3c(Br)c(OCc4nnn[nH]4)ccc3c2)c2ccccc2n1C [Example 36, 2-Butyl-1-methyl-1H-indole-3-carboxylic acid [5-bromo-6-(1H-tetrazol-5-ylmethoxy)-naphthalen-2-ylmethyl]-methyl-amide] | 147 to 149 °C | 46% | 4% |  |  | 
23 | O=C(O)COc1ccc2cc(CNC(=O)C3(c4ccccc4)CCCC3)ccc2c1 [Example 87, (6-{[(1-Phenyl-cyclopentanecarbonyl)-amino]-methyl}-naphthalen-2-yloxy)-acetic acid] |  | 32% |  |  |  | 
